Measurements taken from US8372967B2, “Compounds and methods for modulating expression of GCCR” (Isis Pharmaceuticals, Inc., priority 2006, dated 2013).
Strand notation (5' to 3'): a small letter for the sugar, then the base; units joined by * are phosphorothioate-linked, units joined directly phosphodiester-linked; [ ] holds rarer units or linkages, { } end groups; capitals alone tell only the bases. e = 2'-O-(2-methoxyethyl) (MOE); [5mC] = 5-methylcytosine; d = 2'-deoxy (DNA)

Columns and labels:
human SGLT2 = target: T1, human SGLT2 (Homo sapiens, UniProt P31639); details: Xenopus oocytes; cited from earlier work
T1 construct: host or cells: Xenopus oocytes
T1 sequence (P31639 1-672): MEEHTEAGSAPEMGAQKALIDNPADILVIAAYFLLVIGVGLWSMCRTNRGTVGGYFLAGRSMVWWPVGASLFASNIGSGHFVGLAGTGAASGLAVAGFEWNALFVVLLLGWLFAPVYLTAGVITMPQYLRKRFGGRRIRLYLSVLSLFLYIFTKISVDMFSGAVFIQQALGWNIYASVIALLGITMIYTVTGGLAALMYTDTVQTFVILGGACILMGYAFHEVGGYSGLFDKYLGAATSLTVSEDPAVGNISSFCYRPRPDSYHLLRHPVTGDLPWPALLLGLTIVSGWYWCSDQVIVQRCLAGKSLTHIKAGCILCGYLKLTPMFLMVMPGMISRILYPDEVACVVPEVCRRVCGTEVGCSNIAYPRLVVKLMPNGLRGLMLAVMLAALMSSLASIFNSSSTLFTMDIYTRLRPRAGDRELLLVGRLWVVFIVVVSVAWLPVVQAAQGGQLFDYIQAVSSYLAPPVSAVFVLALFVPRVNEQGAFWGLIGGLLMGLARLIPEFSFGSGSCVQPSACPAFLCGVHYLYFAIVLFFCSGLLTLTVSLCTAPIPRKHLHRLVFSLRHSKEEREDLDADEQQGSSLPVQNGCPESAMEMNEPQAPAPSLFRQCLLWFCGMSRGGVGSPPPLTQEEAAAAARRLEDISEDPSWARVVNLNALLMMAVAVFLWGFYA

mouse SGLT2 mRNA [1] = experiment: Mouse SGLT2 mRNA in kidney, additional 1-10-1 and 2-8-2 MOE gapmers (Table 68); type: in vivo; details: Balb/c mouse kidney
mouse SGLT2 mRNA [2] = experiment: Mouse SGLT2 mRNA in kidney, MOE versus Methyleneoxy BNA gapmers (Table 69); type: in vivo; details: Balb/c mouse kidney
Method: The effect of ISIS 3796921-10-1 MOE gapmer and ISIS 3886252-8-2 MOE gapmer are compared with the effect of ISIS 3921701-10-1 Methyleneoxy BNA Gapmer and ISIS 3921732-8-2 Methyleneoxy BNA Gapmer (see Table 69) on mouse SGLT2 mRNA levels in vivo. Data are taken from three experiments in which male 6-week old Balb/c mice were dosed twice per week for three weeks with 5, 25 and 125 nmol/kg of either the ISIS 3796921-10-1 MOE gapmer or the ISIS 3886252-8-2 MOE gapmer given by intraperitoneal injection. Mice were sacrificed 48 hours following last administration and evaluated for SGLT2 mRNA levels in kidney. Target levels were determined by RT, real-time PCR as described by other examples herein. PCR results were normalized to an internal ISIS control. The data are expressed as percent change (“+” indicates an increase, “−” indicates a decrease) relative to saline treated animals and are illustrated in Table 69.

rat SGLT2 mRNA = experiment: Rat SGLT2 mRNA in kidney, 1-10-1 and 2-8-2 MOE gapmer (Table 70); type: in vivo; details: Sprague-Dawley rat kidney
Method: The effect of ISIS 3796921-10-1 MOE gapmer and ISIS 388625 MOE 2-8-2 gapmer (see Table 70) on rat SGLT2 mRNA levels in vivo. […] Rats were sacrificed 48 hours following last administration and evaluated for SGLT2 levels in kidney. Target levels were determined by RT, real-time PCR as described by other examples herein. PCR results were normalized to an internal ISIS control.

[3] = Plasma glucose in ZDF rat (Table 71); type: in vivo; details: ZDF rats, 400 nM/kg i.p. once a week for twelve weeks; compared to PBS and control
Method: (§1) ISIS 388625, 388626 and control oligo ISIS 388628 were analyzed for their effect on ZDF rat plasma glucose levels and HbA1c. The leptin receptor deficient Zucker diabetic fatty (ZDF) rat is a useful model for the investigation of type 2 diabetes. Diabetes develops spontaneously in these male rats at ages 8-10 weeks, and is associated with hyperphagia, polyuria, polydipsia, and impaired weight gain, symptoms which parallel the clinical symptoms of diabetes (Phillips M S, et al., 1996, Nat Genet. 13, 18-19). Six week old ZDF rats were injected intraperitoneally with short antisense compound at a dose of 400 nM/kg once a week for twelve weeks. Data are illustrated in Tables 71 and 72.

[4] = HbA1c status in ZDF rat (Table 72); type: in vivo; details: ZDF rats, 400 nM/kg i.p. once a week for twelve weeks; compared to PBS and control
Method: as §1

dog SGLT2 mRNA = experiment: Dog SGLT2 mRNA levels in kidney (Table 73); type: in vivo; details: 1 mg/kg/wk dose
Method: (§2) ISIS 388625 is a 2-8-2 MOE Gapmer with sequence […] (SEQ ID NO: 246) (e.g. see Table 71). The effect of ISIS 388625 on dog SGLT2 mRNA levels. Data are taken from two dosing groups in which a total of nine male beagle dogs were dosed with either one or ten mg/kg/week of ISIS 388625 or saline given by subcutaneous injection twice weekly. On day 46 of the study all dogs were sacrificed and evaluated for SGLT2 levels in kidney. Target levels were determined by quantitative RT, real-time PCR as described by other examples herein. PCR results were normalized to an internal ISIS control.

[5] = Standard glucose tolerance test and urinary glucose excretion in dog; type: in vivo; details: standard glucose tolerance test, on average, compared to saline controls
Method: as §2
Even greater reduction can be achieved at slightly higher doses. […] Peak plasma glucose levels were decreased by over 50% on average and the subsequent drop in glucose was lessened compared to saline controls in a standard glucose tolerance test.

## O=C(CCc1ccc(O)cc1)c1c(O)cc(O)cc1O[C@@H]1O[C@H](CO)[C@@H](O)[C@H](O)[C@H]1O [phlorizin]
Human SGLT2
  transport activity: suppressed

## ISIS 388625: TGTTCCAGCCCA 2-8-2 MOE Gapmer, SGLT2 (eT*eG*dT*dT*d[5mC]*d[5mC]*dA*dG*d[5mC]*d[5mC]*e[5mC]*eA)
Mouse SGLT2 mRNA [1]; 0.02 umol/kg i.p. twice per week for three weeks
  % change in SGLT2 expression relative to saline: −65%
Mouse SGLT2 mRNA [1]; 0.1 umol/kg i.p. twice per week for three weeks
  % change in SGLT2 expression relative to saline: −88%
Mouse SGLT2 mRNA [1]; 0.5 umol/kg i.p. twice per week for three weeks
  % change in SGLT2 expression relative to saline: −90%
Mouse SGLT2 mRNA [2]; 5 nmol/kg i.p. twice per week for three weeks
  SGLT2 mRNA, percent change relative to saline treated animals: −18%
Mouse SGLT2 mRNA [2]; 25 nmol/kg i.p. twice per week for three weeks
  SGLT2 mRNA, percent change relative to saline treated animals: −47%
Mouse SGLT2 mRNA [2]; 125 nmol/kg i.p. twice per week for three weeks
  SGLT2 mRNA, percent change relative to saline treated animals: −70%
Rat SGLT2 mRNA; dose 3.125 umol/kg [sic] i.p. twice per week for three weeks
  % change in SGLT2 expression relative to saline: +25%
Rat SGLT2 mRNA; dose 12.5 umol/kg [sic] i.p. twice per week for three weeks
  % change in SGLT2 expression relative to saline: −15%
Rat SGLT2 mRNA; dose 50 umol/kg [sic] i.p. twice per week for three weeks
  % change in SGLT2 expression relative to saline: −65%
Rat SGLT2 mRNA; dose 200 umol/kg [sic] i.p. twice per week for three weeks
  % change in SGLT2 expression relative to saline: −80%
[3]
  Plasma glucose levels: significantly reduced
[4]
  HbA1C: significantly reduced
Dog SGLT2 mRNA
  reduction of SGLT2 mRNA: greater than 80%
[5]
  Peak plasma glucose levels decreased: over 50%
